Results: article PMC11671526, “β-caryophyllene sensitizes hepatocellular carcinoma cells to chemotherapeutics and inhibits cell malignancy through targeting MAPK signaling pathway” (Frontiers in Pharmacology, 2024)

Test system: HepG2 cells
Test: RNA-seq transcriptome analysis of differentially expressed genes
Format: cell-based, human
Settings: BCP vs control HepG2, RNA-seq
Description: The quality and concentration of RNA were examined by MOPS RNA electrophoresis and Eppendorf BioSpectrometer. The transcriptome analysis was performed by BGI-Wuhan China. The RNA-seq dataset of this study is accessible in the Gene Expression Omnibus (GEO) with an access number of GSE276099. The sequence library for each sample was prepared using the BGISEQ-500 platform with a 50-bp single-end (SE50) format. […]2.2.1) was used to align the clean reads to the reference genome and alignment of the clean reads to the reference genes was carried out using Bowtie2 (v2.4.5) ([Langmead and Salzberg, 2012]; [Kim et al., 2015]). Gene expression levels were calculated by RSEM (v1.3.1) ([Li and Dewey, 2011]). Analysis of differential gene expression was performed using edgeR in the Bioconductor software package ([Robinson et al., 2010]). Using a standard protocol, the RNA samples were also examined by reverse transcription and quantitative polymerase chain reaction (RT-qPCR). In brief, for reverse transcription, total RNA (1 μg) and gDNA wiper Mix were incubated at 42°C for 2 min. The samples were immediately incubated with a master mix containing 10 pmol/μL of poly (dT) primers at 37°C for 15 min and 85°C for 5 s. To detect the expression of specific genes by qPCR analysis, gene-specific primers (shown in Supplementary Table S1) were mixed with the ChamQ Universal SYBER qPCR Master Mix and the reaction was conducted using the Roche Lightcycler 480. The GAPDH value was used to normalize the results of each gene. The RNA-seq data of BCP-treated HepG2 cells were screened for DEGs. Gene symbols were turned into Enterz ID using the org.Hs.eg.db Bio-conductor R package. The cluster profiler (v4.6.2) package was used to perform the Kyoto Encyclopedia of Genes and Genomes (KEGG) and Gene Ontology (GO) enrichment analyses ([Wu et al., 2021]). Following the Transcript per million (TPM) data of the dataset, the line chart, and heatmap were plotted using ggplot2 and pheatmap R packages, respectively.

C=C1CC/C=C(\C)CC[C@@H]2[C@@H]1CC2(C)C [BCP, β-caryophyllene]
ODAD2 change: Up
ODAD2 logFC: 0.6018
PADI1 change: Down
PADI1 logFC: -0.911
PAN2 change: Up
PAN2 logFC: 0.6394
PAPLN change: Up
PAPLN logFC: 0.648
PARP10 change: Up
PARP10 logFC: 0.961
PDZK1IP1 change: Up
PDZK1IP1 logFC: 0.6396
PERM1 change: Up
PERM1 logFC: 0.9379
PGF change: Down
PGF logFC: -1.184
PGGHG change: Up
PGGHG logFC: 0.7209
PID1 change: Down
PID1 logFC: -0.6654
PLCD4 change: Down
PLCD4 logFC: -1.595
PLCH1 change: Up
PLCH1 logFC: 1.418
PLEKHF1 change: Up
PLEKHF1 logFC: 0.8594
PLEKHN1 change: Up
PLEKHN1 logFC: 0.6105
POU2F3 change: Down
POU2F3 logFC: -1.5108
PRDM12 change: Down
PRDM12 logFC: -1.2196
PRIMPOL change: Up
PRIMPOL logFC: 0.639
PROB1 change: Down
PROB1 logFC: -0.6611
PRSS56 change: Up
PRSS56 logFC: 0.9346
PTP4A3 change: Up
PTP4A3 logFC: 0.9798
PTPRR change: Up
PTPRR logFC: 1.308
RAET1E change: Down
RAET1E logFC: -0.794
RAET1L change: Down
RAET1L logFC: -0.9044
RASD2 change: Down
RASD2 logFC: -0.5906
RASL11A change: Down
RASL11A logFC: -0.8207
RHBDL3 change: Down
RHBDL3 logFC: -0.6105
S1PR1 change: Down
S1PR1 logFC: -1.034
SH2D5 change: Up
SH2D5 logFC: 0.5827
SHC3 change: Down
SHC3 logFC: -0.7485
SLC4A11 change: Down
SLC4A11 logFC: -0.655
SLC6A12 change: Down
SLC6A12 logFC: -3.144
SLC6A16 change: Down
SLC6A16 logFC: -0.7923
SLC12A3 change: Down
SLC12A3 logFC: -0.7354
SLC25A41 change: Down
SLC25A41 logFC: -0.9215
SMC1B change: Up
SMC1B logFC: 1.162
SMPDL3A change: Down
SMPDL3A logFC: -0.7314
SORBS1 change: Up
SORBS1 logFC: 0.6679
SP6 change: Down
SP6 logFC: -0.8849
ST3GAL5 change: Down
ST3GAL5 logFC: -0.6552
STAC change: Down
STAC logFC: -0.9497
STXBP6 change: Down
STXBP6 logFC: -0.6612
SYTL4 change: Down
SYTL4 logFC: -1.384
TCF7 change: Up
TCF7 logFC: 0.7392
TESPA1 change: Down
TESPA1 logFC: -0.7534
TEX9 change: Up
TEX9 logFC: 0.7307
TGFA change: Down
TGFA logFC: -0.6404
THRB change: Down
THRB logFC: -0.6974
TIAF1 change: Down
TIAF1 logFC: -0.9875
TLN2 change: Up
TLN2 logFC: 0.6813
TMEM17 change: Up
TMEM17 logFC: 0.6031
TMEM121 change: Down
TMEM121 logFC: -0.7343
TMEM158 change: Down
TMEM158 logFC: -0.7403
TMEM213 change: Down
TMEM213 logFC: -1.017
TMIE change: Up
TMIE logFC: 1.064
TMPPE change: Down
TMPPE logFC: -0.812
TNFRSF14 change: Up
TNFRSF14 logFC: 1.214
TOX change: Up
TOX logFC: 0.9011
TRABD2B change: Up
TRABD2B logFC: 0.6053
TSHZ2 change: Up
